Read-outs that look alike come from different tables or passages of the source. No end group written: not given here.
Experiments:
[1] = test system: human primary dermal fibroblasts; assay: Cell proliferation assay (MTT); format: cell-based; settings: 72 h, serum-free DMEM, peptide at 1–25 μg/mL
Protocol: Biopsies of healthy human skin were obtained aseptically from three donors (47–69 years old) undergoing circumcision after obtaining their written informed consent. All the procedures were approved by the Ethics Committee of Medical University of Gdansk (NKEBN/483/2011. Issued: 2011-12-19). The samples were washed several times with sterile PBS (Sigma-Aldrich, Germany) containing antibiotic (200 U/mL penicillin and 200 μg/mL streptomycin), after which, the subcutaneous tissue was cut off with a sharp blade. The resulting sheets were cut into small fragments, washed two times with sterile PBS and treated with 6 U/mL dispase II (BD, USA) overnight at 4°C to separate epidermis and dermis. The dermis was then digested with 1.0 mg/mL collagenase type I (from Clostridium histolyticum Sigma-Aldrich, Germany) for 2 hours at 37°C to isolate fibroblasts. Cells were used between the 2nd and 4th passage in all experiments.
(§1) In our study two kind of cells were used: immortalized human HaCaT keratinocytes (DKFZ Heidelberg, Germany) and primary dermal fibroblasts obtained from 3 healthy donors. Both types of the used cell lines were grown in Dulbecco's modified Eagle's medium (DMEM) (Sigma–Aldrich, Germany), that contained […] of glucose, […] of L-glutamine, sodium pyruvate and sodium bicarbonate. Additionally, medium was supplemented with 10% of FCS (fetal calf serum, Sigma-Aldrich, Germany), 100 U/mL of penicillin and 100 μg/mL streptomycin (Sigma-Aldrich, Germany). The cells were grown in culture dishes (BD, USA) under standard conditions in a humidified atmosphere with 5% CO2 at 37°C and medium was changed every 2 days.
The fibroblasts and keratinocytes were seeded at density of 4500 and 6000 cells per well, respectively, into 96-well plates suspended in a medium supplemented with 10% of FCS. After 24 h the media were exchanged with serum- and antibiotic- free DMEM and tested peptides dissolved in PBS were added yielding final concentration ranging from 1 to 50 μg/mL. Cells were incubated for the next 24 hours, when the medium was exchanged again and fresh portion of peptides (used at the same concentrations as previously) was added. Incubation was continued for the next 48 hours (the overall time of cell exposition to peptide was 72 h). […] After 15 min when the purple crystals of formazan were fully solubilized, absorbance was read at 570 nm with a plate reader. […]
Fig 1 Pro-proliferative activity of the tested peptides towards human keratinocytes (A) and fibroblasts (B). […] The data represents results of MTT assay expressed as the percentage of the cell viability in comparison to their control sample (cells incubated in serum-free DMEM without tested peptides), additional positive control corresponds to the cells incubated in the presence of 10% FCS. […]

[2] = test system: immortalized human HaCaT keratinocytes; assay: Cell proliferation assay (MTT); format: cell-based; settings: 72 h, serum-free DMEM, whole range 1–50 μg/mL, vs. control without peptide, triplicate
Protocol: as §1
The fibroblasts and keratinocytes were seeded at density of 4500 and 6000 cells per well, respectively, into 96-well plates suspended in a medium supplemented with 10% of FCS. After 24 h the media were exchanged with serum- and antibiotic- free DMEM and tested peptides dissolved in PBS were added yielding final concentration ranging from 1 to 50 μg/mL. Cells were incubated for the next 24 hours, when the medium was exchanged again and fresh portion of peptides (used at the same concentrations as previously) was added. Incubation was continued for the next 48 hours (the overall time of cell exposition to peptide was 72 h). At the end of the experiment cells were treated with 20 μL of MTT (5 mg/mL in PBS). After 3 h at 37°C under 5% CO2 medium was discarded and replaced by 6mM HCl in isopropanol. After 15 min when the purple crystals of formazan were fully solubilized, absorbance was read at 570 nm with a plate reader. The optical density reflects the level of cell viability as MTT is converted in purple formazan product only in the presence of viable mitochondria of the living cells.
Fig 1 Pro-proliferative activity of the tested peptides towards human keratinocytes (A) and fibroblasts (B). Cells were incubated for 72 hours in serum-free DMEM medium in the presence of peptides applied at concentrations of 1,10, 25 and 50 μg/mL, respectively. The data represents results of MTT assay expressed as the percentage of the cell viability in comparison to their control sample (cells incubated in serum-free DMEM without tested peptides), additional positive control corresponds to the cells incubated in the presence of 10% FCS. All experiments were performed independently in triplicate. *P < 0.05, **P < 0.01, ***P < 0.001 vs. control.
In order to evaluate a long-term effect of peptides, experiments were carried out for 72 hours. Before addition of the tested compounds, the cell medium was exchanged for the fresh one not containing any serum or antibiotic.

[3] = Circular dichroism, alpha-helical content; format: physicochemical; settings: CD, mean residue ellipticity at 222 nm (Eq 1), peptide 0.4 mg/ml in 30 mM SDS, room temperature
Protocol: Circullar dichroism spectra of analyzed compounds were recorded on a Jasco J-815 spectropolarimeter using a quartz cell of 1 mm path length between 195–260 nm at room temperature. Peptides at concentration of 0.4 mg/ml were dissolved in water or 30 mM SDS solution. SDS micelle system was used as the simplified model of negatively charged lipid membrane. On the basis of the obtained results the alpha-helical content was determined from the mean residue ellipticities at 222 nm according to Eq 1: %Helix=([θ]obs/([θ]helixx(1−2.57/l))x100, (1) where [θ] obs is the experimentally observed mean-residue ellipticity at 222 nm, [θ]helix is the theoretical ellipticity of peptide of infinite length with a 100% helix population, taken as -39 500 deg·cm^2/dmol, and l is the number of peptide bonds.
Circular dichroism method was applied to obtain a basic information about the secondary structure of the synthesized compounds (with the exception of CAR, CAR3, DAL, CTEN2) in two chemical environments, water and 30 mM SDS. As expected, all the tested compounds in water adopted a random-coil structure, while in the presence of 30 mM SDS most of them formed α-helices with characteristic negative minima around 208 and 220 nm. […] The examples of CD spectra for selected peptides could be seen in supporting information (Figure A in S1 File). On the basis of the experimentally obtained values of the mean residue ellipticities of peptides at 222 nm their alpha-helical content was calculated according to the Eq 1 (Table 1).

[4] = test system: B. subtilis; format: cell-based; settings: 24 h
Protocol: (§2) Luria-Bertani broth (LB) and Sabouraud Dextrose broth (SB) (Biocorp, Poland) were used for cultivation of bacteria and fungi strains, respectively. Antimicrobial activity of peptides was analyzed through determination of MIC (minimal inhibitory concentration) parameter according to the standard microdilution technique performed on 96-well plates. Mueller-Hinton broth (MHB) was used as the working medium for all bacterial strains, while in case of fungi it was additionally supplemented with 2% glucose.
(§3) Briefly, inoculum was prepared from freshly grown cultures of microorganisms being at their exponential phase of growth. Each well of 96-well plates containing 100 μL of serially diluted peptides in PBS (phosphate buffer saline) at concentration ranging from 2 to 250 μg/mL were inoculated with 100 μL of approximately 10^5 CFU/mL of bacterial suspension or about 2.5 x 10^3 CFU/mL of fungi suspended in a double concentrated Mueller-Hinton broth (supplemented with 2% glucose for Candida spps.). Then plates were incubated overnight at 37°C and absorbance was read at 590 nm after 24 h. Cultures without peptide were treated as positive control, while uninoculated Mueller-Hinton broth was defined as negative control. All measurements were run at least in triplicate.
(§4) All peptides were screened against the wide range of microorganisms, including Gram-negative, Gram-positive bacteria and fungi from Candida species (Table 2). Broth microdilution method for MIC determination was used as a standard procedure. All assays were performed on liquid Mueller-Hinton broth, which was additionally supplemented with 2% glucose when fungicidal activity towards Candida spps. was analyzed.

[5] = test system: B. cereus; format: cell-based; settings: 24 h
Protocol: as §2, §3, §4

[6] = test system: Candida tropicalis (CCM 8264); format: cell-based; settings: broth microdilution, Mueller-Hinton broth + 2% glucose, about 2.5 x 10^3 CFU/mL, 37°C, 24 h, absorbance 590 nm, at least triplicate
Source text: (§5) Escherichia coli (PCM 2057), Staphylococcus aureus (PCM 2054), Staphylococcus epidermidis (PCM 2118), Pseudomonas aeruginosa (PCM 499) were obtained from Polish Collection of Microorganisms. Fungi strains Candida albicans (CCM 8186), Candida glabrata (CCM 8270), Candida parapsilosis (CCM 8260), Candida krusei (CCM 8271), Candida tropicalis (CCM 8264) were acquired from Czech Collection of Microorganisms.
as §2, §3, §4

[7] = test system: Pseudomonas aeruginosa (PCM 499); format: cell-based
Source text: as §5, §2, §3, §4

[8] = test system: Candida krusei (CCM 8271); format: cell-based; settings: broth microdilution, Mueller-Hinton broth + 2% glucose, about 2.5 x 10^3 CFU/mL, 37°C, 24 h, absorbance 590 nm, at least triplicate
Source text: as §5, §2, §3, §4

[9] = test system: Candida parapsilosis (CCM 8260); format: cell-based; settings: broth microdilution, Mueller-Hinton broth + 2% glucose, about 2.5 x 10^3 CFU/mL, 37°C, 24 h, absorbance 590 nm, at least triplicate
Source text: as §5, §2, §3, §4

[10] = test system: Candida glabrata (CCM 8270); format: cell-based; settings: broth microdilution, Mueller-Hinton broth + 2% glucose, about 2.5 x 10^3 CFU/mL, 37°C, 24 h, absorbance 590 nm, at least triplicate
Source text: as §5, §2, §3, §4

[11] = test system: Candida albicans (CCM 8186); format: cell-based; settings: broth microdilution, Mueller-Hinton broth + 2% glucose, about 2.5 x 10^3 CFU/mL, 37°C, 24 h, absorbance 590 nm, peptide 2 to 250 μg/mL, at least triplicate
Source text: as §5, §2, §3, §4

[12] = test system: Staphylococcus aureus (PCM 2054); format: cell-based
Source text: as §5, §2, §3, §4

[13] = test system: Escherichia coli (PCM 2057); format: cell-based
Source text: as §5, §2, §3, §4

[14] = test system: Staphylococcus epidermidis (PCM 2118); format: cell-based
Source text: as §5, §2, §3, §4

[15] = broth microdilution, Mueller-Hinton broth, approximately 10^5 CFU/mL, 37°C, absorbance 590 nm, at least triplicate
[16] = broth microdilution, Mueller-Hinton broth, approximately 10^5 CFU/mL, 37°C, 24 h, absorbance 590 nm, at least triplicate

| Substance | Effect on fibroblast cell count (MTT), in words [1] | Effect on HaCaT cell viability/proliferation (MTT), in words [2] | α-helicity [3] [%] | MIC B. subtilis [4, 15] [µg/mL] | MIC B. cereus [5, 15] [µg/mL] | MIC C.tropicalis [6] [µg/mL] | MIC P. aeruginosa [7, 16] [µg/mL] | MIC C.krusei [8] [µg/mL] | MIC C. parapsilosis [9] [µg/mL] | MIC C.glabrata [10] [µg/mL] | MIC C. albicans [11] [µg/mL] | MIC S.aureus [12, 16] [µg/mL] | MIC E.coli [13, 16] [µg/mL] | MIC S. epidermidis [14, 16] [µg/mL] | MIC B. subtilis [4] [µg/mL] | MIC B. cereus [5] [µg/mL] | MIC P. aeruginosa ([7]; PCM 499, 24 h) [µg/mL] | MIC S.aureus ([12]; PCM 2054, 24 h) [µg/mL] | MIC E.coli ([13]; PCM 2057, 24 h) [µg/mL] | MIC S. epidermidis ([14]; PCM 2118, 24 h) [µg/mL] |
| --- | --- | --- | --- | --- | --- | --- | --- | --- | --- | --- | --- | --- | --- | --- | --- | --- | --- | --- | --- | --- |
| EGLEPG [CTEN2] | Increased cell count | non-toxic |  |  |  |  |  |  |  |  |  |  |  |  |  |  |  |  |  |  |
| EGLEPG-PEG-IKKILSKIKKLLK-NH2 [CTEN2-PEG-LK6, conjugate of CTEN2 and LK6 joined by PEG-linker] |  |  | 20 | 7.8 | >125 | 7.8 | >125 | 15.6 | 125 | >125 | 125 | >125 | >125 | 7.8 |  |  |  |  |  |  |
| IKKILSKIKKLL-PEG-YAGFLR [DK5-PEG-DAL, conjugate of DK5 and dalargin joined by PEG-linker (8-amino-3,6-dioxaoctanoic acid)] |  | negative dose-response relationship | 20 | 7.8 | >125 | 7.8 | >125 | 7.8 | 2.0 | >125 | 100 | >125 | 7.8 | 7.8 |  |  |  |  |  |  |
| IKKILSKIKKLLK-NH2 [LK6, reference compound] |  |  |  |  |  |  |  |  |  |  |  |  |  |  | 7.8 | 50 | 25 | 100 | >125 | 7.8 |

Source: PMC4608580, “Synthesis and Evaluation of Biological Activity of Antimicrobial – Pro-Proliferative Peptide Conjugates” (PLoS ONE, 2015)
